ChEMBL document CHEMBL1641420, “Discovery of pyrazolo[1,5-a]pyrimidine-based CHK1 inhibitors: a template-based approach--part 1” (Bioorg Med Chem Lett, 2011)
pIC50: −log10 of the molar value.

Legend:
[1] = biological target: T1, Serine/threonine-protein kinase Chk1 (Homo sapiens, UniProt O14757); assay: Inhibition of recombinant His-CHK1 expressed in baculovirus after 2 hrs by scintillation proximity assay
T1 sequence (O14757 whole entry): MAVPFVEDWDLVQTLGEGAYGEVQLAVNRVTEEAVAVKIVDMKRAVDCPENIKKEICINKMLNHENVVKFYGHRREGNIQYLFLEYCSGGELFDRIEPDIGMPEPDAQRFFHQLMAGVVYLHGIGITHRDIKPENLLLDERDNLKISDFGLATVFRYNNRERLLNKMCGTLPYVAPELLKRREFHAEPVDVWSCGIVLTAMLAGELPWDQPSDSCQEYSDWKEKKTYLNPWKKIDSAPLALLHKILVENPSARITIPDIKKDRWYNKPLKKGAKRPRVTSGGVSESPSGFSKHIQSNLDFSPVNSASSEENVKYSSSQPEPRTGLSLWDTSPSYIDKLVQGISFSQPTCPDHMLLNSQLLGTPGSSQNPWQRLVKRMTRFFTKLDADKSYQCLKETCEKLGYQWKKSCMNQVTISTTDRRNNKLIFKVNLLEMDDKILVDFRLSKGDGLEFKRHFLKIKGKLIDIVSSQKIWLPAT

[2] = biological target: Cyclin-dependent kinase 2/cyclin A (Homo sapiens, UniProt P24941); assay: Inhibition of CDK2/cyclin A; format: protein-complex assay
[3] = Selectivity ratio, ratio of IC50 for CDK2/cyclin A to IC50 for recombinant His-CHK1

Structure (SMILES) | pIC50 [1] | pIC50 [2] | Ratio IC50 [3]
Nc1cc(C2CCCNC2)nc2c(-c3cccc(O)c3)cnn12 (configuration not stated) | 5.77 | 6.19 | –
Cn1cc(-c2cnn3c(NCc4cccnc4)cc(C4CCCNC4)nc23)cn1 (configuration not stated) | 6.39 | < 4.30 | –
C/C=C/c1cnn2c(N)cc(C3CCCNC3)nc12 (configuration not stated) | 5.29 | 6.15 | –
Cn1cc(-c2cnn3c(Nc4ccccc4)cc(C4CCCNC4)nc23)cn1 (configuration not stated) | 7.06 | < 4.30 | –
Nc1cc(C2CCCNC2)nc2c(-c3cscn3)cnn12 (configuration not stated) | < 4.30 | – | –
Nc1cc(-c2ccccc2)nc2c(Br)cnn12 | 5.54 | 6.60 | –
[O-][n+]1cccc(CNc2cc(-c3ccccc3F)nc3c(Br)cnn23)c1 | < 4.30 | 7.89 | –
CCn1nccc1Nc1cc(C2CCCNC2)nc2c(-c3cnn(C)c3)cnn12 (configuration not stated) | 4.47 | – | –
Nc1cc(C2CCCNC2)nc2ccnn12 (configuration not stated) | 4.44 | 5.11 | –
Nc1cc(C2CCCNC2)nc2c(-c3cccs3)cnn12 (configuration not stated) | 5.89 | 6.16 | –
Cn1cc(-c2cnn3c(NC4CCCCC4)cc(C4CCCNC4)nc23)cn1 (configuration not stated) | 5.82 | < 4.30 | –
Cn1cc(-c2cnn3c(NC(C)(C)C)cc(C4CCCNC4)nc23)cn1 (configuration not stated) | 5.30 | < 4.30 | –
Cn1cc(-c2cnn3c(NCCO)cc(C4CCCNC4)nc23)cn1 (configuration not stated) | 6.07 | < 4.30 | –
Nc1cc(C2CCCNC2)nc2c(-c3cnccn3)cnn12 (configuration not stated) | 6.54 | 5.92 | –
CNc1cc(C2CCCNC2)nc2c(-c3cnn(C)c3)cnn12 (configuration not stated) | 6.85 | < 4.30 | –
Nc1cc(C2CCCNC2)nc2c(-c3ccoc3)cnn12 (configuration not stated) | 6.09 | – | –
CCNc1cc(C2CCCNC2)nc2c(-c3cnn(C)c3)cnn12 (configuration not stated) | 6.32 | < 4.30 | –
Nc1cc(C2CCCNC2)nc2c(-c3cccnc3)cnn12 (configuration not stated) | 6.27 | – | –
Nc1cc(C2CCCNC2)nc2c(-c3ccccc3)cnn12 (configuration not stated) | 5.35 | 5.34 | –
Cn1cc(-c2cnn3c(Nc4nccs4)cc(C4CCCNC4)nc23)cn1 (configuration not stated) | 7.55 | < 4.30 | –

Structure (SMILES) | pIC50 [1] | pIC50 [2] | Ratio IC50 [3]
Nc1cc(C2CCCNC2)nc2c(-c3cncnc3)cnn12 (configuration not stated) | 6.55 | 5.27 | –
Nc1cc(C2CCCNC2)nc2c(-c3ccsc3)cnn12 (configuration not stated) | 5.96 | 6.23 | –
Nc1cc(C2CCCNC2)nc2c(-c3ccns3)cnn12 (configuration not stated) | 7.15 | 6.10 | –
Cc1cc(Nc2cc(C3CCCNC3)nc3c(-c4cnn(C)c4)cnn23)sn1 (configuration not stated) | – | 4.40 | –
Cn1cc(-c2cnn3c(Nc4ccccn4)cc(C4CCCNC4)nc23)cn1 (configuration not stated) | 7.55 | < 4.30 | –
Cc1nc2cc(Nc3cc(C4CCCNC4)nc4c(-c5cnn(C)c5)cnn34)ccc2s1 (configuration not stated) | 6.21 | < 4.30 | –
Cc1cc(Nc2cc(C3CCCNC3)nc3c(-c4cnn(C)c4)cnn23)no1 (configuration not stated) | 7.68 | < 4.30 | –
CCOC(=O)c1ccc(Nc2cc(C3CCCNC3)nc3c(-c4cnn(C)c4)cnn23)cc1 (configuration not stated) | 7.29 | < 4.30 | –
Cn1cc(-c2cnn3c(NC4CCNCC4)cc(C4CCCNC4)nc23)cn1 (configuration not stated) | 5.17 | < 4.30 | –
Cn1cc(-c2cnn3c(Nc4nncs4)cc(C4CCCNC4)nc23)cn1 (configuration not stated) | 5.66 | < 4.30 | –
Cn1cc(-c2cnn3c(NCc4ccccc4)cc(C4CCCNC4)nc23)cn1 (configuration not stated) | 6.00 | – | –
Nc1cc(C2CCCNC2)nc2c(-c3ccn[nH]3)cnn12 (configuration not stated) | 5.70 | 5.66 | –
N#Cc1cnn2c(N)cc(C3CCCNC3)nc12 (configuration not stated) | 5.68 | 6.09 | –
Nc1cc(C2CCCNC2)nc2c(Br)cnn12 (configuration not stated) | 5.97 | 7.07 | –
Cn1cc(-c2cnn3c(N)cc(C4CCCNC4)nc23)cn1 (configuration not stated) | 7.22 | 5.21 | 100
CC#Cc1cnn2c(N)cc(C3CCCNC3)nc12 (configuration not stated) | 4.74 | 7.10 | –
CCOC(=O)c1cnn2c(N)cc(C3CCCNC3)nc12 (configuration not stated) | < 4.30 | – | –
CCc1cnn2c(N)cc(C3CCCNC3)nc12 (configuration not stated) | 5.03 | 6.57 | –
Cn1cc(-c2cnn3c(Nc4ccc5c(c4)OCO5)cc(C4CCCNC4)nc23)cn1 (configuration not stated) | 6.41 | < 4.30 | –
